# Test results reported in article PMC4490784, “Compensatory induction of MYC expression by sustained CDK9 inhibition via a BRD4-dependent mechanism” (eLife, 2015).
# Tests used:
# [1] = molecular target: CDK4-CycD1 (Homo sapiens, UniProt P11802); assay: AlphaScreen-based kinase assay; type: biochemical
# Description: (§1) The inhibitory activity of i-CDK9 for CDK1-CycB (Upstate/Millipore), CDK2-CycA (Invitrogen), CDK4-CycD1 (Novartis), CDK7-CycH-MAT1 (Invitrogen), and CDK9-CycT1 (Invitrogen) was assessed in the AlphaScreen (PerkinElmer, Inc)-based kinase assay developed at Novartis. Briefly, each CDK–cyclin pair was pre-incubated with i-CDK9 for 15 min, followed by addition of kinase substrates (ELK for CDK1 and CDK2, RB for CDK4, and CDK7tide for CDK7 and CDK9). The mixture was incubated at room temperature for additional 4–5 hr. The reaction was stopped and read on Envision (PerkinElmer, Inc). Selectivity against a large panel of over 400 kinases was evaluated using the KINOMEscan platform (DiscoveRx, CA) employing a proprietary active site-directed competition binding assay ([Fabian et al., 2005]). The assay was conducted at two different concentrations of i-CDK9 (1 and 10 µM) by DiscoveRx.
# [2] = molecular target: T1, CDK1-CycB (Homo sapiens, UniProt P06493); assay: AlphaScreen-based kinase assay; type: biochemical
# T1 construct: purchased Upstate/Millipore
# Description: as §1
# [3] = molecular target: T2, CDK7-CycH-MAT1 (Homo sapiens, UniProt P50613); assay: AlphaScreen-based kinase assay; type: biochemical
# T2 construct: purchased Invitrogen
# Description: as §1
# [4] = molecular target: T3, CDK2-CycA (Homo sapiens, UniProt P24941); assay: AlphaScreen-based kinase assay; type: biochemical
# T3 construct: purchased Invitrogen
# Description: as §1
# [5] = molecular target: JAK2(JH1domain-catalytic) (Homo sapiens, UniProt O60674); assay: KINOMEscan binding assay; parameters: JAK2(JH1domain-catalytic); purchased DiscoveRx KINOMEscan
# Description: As there are no commercial or in-house kinase assays available for CDK3, CDK5, CDK11 and CDK13, the inhibitory abilities of i-CDK9 toward these CDKs were thus evaluated in the DiscoveRx KINOMEscan assay, which is based on a proprietary active site-directed competition-binding platform ([Fabian et al., 2005]).
# as §1
# [6] = molecular target: CDK8-CycC (Homo sapiens, UniProt P49336); assay: AlphaScreen-based kinase assay; type: biochemical
# [7] = molecular target: T4, PLK4 (Homo sapiens, UniProt O00444); assay: KINOMEscan binding assay; details: read-out: % Retention on Solid Support
# T4 construct: purchased DiscoveRx KINOMEscan
# In short: (§2)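 Over 400 kinases were screened. i-CDK9 was applied at 1 and 10 µM. Occupancy was read by competition with an active site-directed ligand.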
# [8] = molecular target: T5, RIPK1 (Homo sapiens, UniProt Q13546); assay: KINOMEscan binding assay; details: read-out: % Retention on Solid Support
# T5 construct: purchased DiscoveRx KINOMEscan
# In short: as §2
# [9] = molecular target: T6, BRSK1 (Homo sapiens, UniProt Q8TDC3); assay: KINOMEscan binding assay; details: read-out: % Retention on Solid Support
# T6 construct: purchased DiscoveRx KINOMEscan
# In short: as §2
# [10] = molecular target: T7, FLT3(D835H) (Homo sapiens, UniProt P36888, D835H); assay: KINOMEscan binding assay; details: read-out: % Retention on Solid Support
# T7 construct: purchased DiscoveRx KINOMEscan
# In short: as §2
# [11] = molecular target: T8, CDK7 (Homo sapiens, UniProt P50613); assay: KINOMEscan binding assay; details: read-out: % Retention on Solid Support
# T8 construct: purchased DiscoveRx KINOMEscan
# In short: as §2
# [12] = molecular target: T9, MLK2 (Homo sapiens, UniProt Q02779); assay: KINOMEscan binding assay; details: read-out: % Retention on Solid Support
# T9 construct: purchased DiscoveRx KINOMEscan
# In short: as §2
# [13] = molecular target: T10, RAF1 (Homo sapiens, UniProt P04049); assay: KINOMEscan binding assay; details: read-out: % Retention on Solid Support
# T10 construct: purchased DiscoveRx KINOMEscan
# In short: as §2
# [14] = molecular target: T11, PIK3CD (Homo sapiens, UniProt O00329); assay: KINOMEscan binding assay; details: read-out: % Retention on Solid Support
# T11 construct: purchased DiscoveRx KINOMEscan
# In short: as §2
# [15] = molecular target: T12, MARK1 (Homo sapiens, UniProt Q9P0L2); assay: KINOMEscan binding assay; details: read-out: % Retention on Solid Support
# T12 construct: purchased DiscoveRx KINOMEscan
# In short: as §2
# [16] = molecular target: T13, DDR1 (Homo sapiens, UniProt Q08345); assay: KINOMEscan binding assay; details: read-out: % Retention on Solid Support
# T13 construct: purchased DiscoveRx KINOMEscan
# In short: as §2
# [17] = molecular target: T14, PIK4CB (Homo sapiens, UniProt Q9UBF8); assay: KINOMEscan binding assay; details: read-out: % Retention on Solid Support
# T14 construct: purchased DiscoveRx KINOMEscan
# In short: as §2
# [18] = molecular target: T15, ZAK (Homo sapiens, UniProt Q9NYL2); assay: KINOMEscan binding assay; details: read-out: % Retention on Solid Support
# T15 construct: purchased DiscoveRx KINOMEscan
# In short: as §2
# [19] = molecular target: T16, FAK (Homo sapiens, UniProt Q05397); assay: KINOMEscan binding assay; details: read-out: % Retention on Solid Support
# T16 construct: purchased DiscoveRx KINOMEscan
# In short: as §2
# [20] = molecular target: T17, PIM3 (Homo sapiens, UniProt Q86V86); assay: KINOMEscan binding assay; details: read-out: % Retention on Solid Support
# T17 construct: purchased DiscoveRx KINOMEscan
# In short: as §2
# [21] = molecular target: T18, CDK3 (Homo sapiens, UniProt Q00526); assay: KINOMEscan binding assay
# T18 construct: purchased DiscoveRx KINOMEscan
# In short: as §2
# [22] = molecular target: T19, DMPK2 (Homo sapiens, UniProt Q6DT37); assay: KINOMEscan binding assay; details: read-out: % Retention on Solid Support
# T19 construct: purchased DiscoveRx KINOMEscan
# In short: as §2
# [23] = molecular target: T20, YES (Homo sapiens, UniProt P07947); assay: KINOMEscan binding assay; details: read-out: % Retention on Solid Support
# T20 construct: purchased DiscoveRx KINOMEscan
# In short: as §2
# [24] = molecular target: T21, ERK1 (Homo sapiens, UniProt P27361); assay: KINOMEscan binding assay; details: read-out: % Retention on Solid Support
# T21 construct: purchased DiscoveRx KINOMEscan
# In short: as §2
# [25] = molecular target: T22, HCK (Homo sapiens, UniProt P08631); assay: KINOMEscan binding assay; details: read-out: % Retention on Solid Support
# T22 construct: purchased DiscoveRx KINOMEscan
# In short: as §2
# [26] = molecular target: T23, ABL1(E255K)-nonphosphorylated (Homo sapiens, UniProt P00519, E255K); assay: KINOMEscan binding assay; details: 10 µM i-CDK9; read-out: % Retention on Solid Support
# T23 construct: purchased DiscoveRx KINOMEscan
# In short: as §2
# [27] = molecular target: T24, ULK1 (Homo sapiens, UniProt O75385); assay: KINOMEscan binding assay
# T24 construct: purchased DiscoveRx KINOMEscan
# In short: as §2
# [28] = molecular target: T25, STK39 (Homo sapiens, UniProt Q9UEW8); assay: KINOMEscan binding assay; details: read-out: % Retention on Solid Support
# T25 construct: purchased DiscoveRx KINOMEscan
# In short: as §2
# [29] = molecular target: T26, RET(V804L) (Homo sapiens, UniProt P07949, V804L); assay: KINOMEscan binding assay; details: read-out: % Retention on Solid Support
# T26 construct: purchased DiscoveRx KINOMEscan
# In short: as §2
# T24 sequence (O75385 whole entry): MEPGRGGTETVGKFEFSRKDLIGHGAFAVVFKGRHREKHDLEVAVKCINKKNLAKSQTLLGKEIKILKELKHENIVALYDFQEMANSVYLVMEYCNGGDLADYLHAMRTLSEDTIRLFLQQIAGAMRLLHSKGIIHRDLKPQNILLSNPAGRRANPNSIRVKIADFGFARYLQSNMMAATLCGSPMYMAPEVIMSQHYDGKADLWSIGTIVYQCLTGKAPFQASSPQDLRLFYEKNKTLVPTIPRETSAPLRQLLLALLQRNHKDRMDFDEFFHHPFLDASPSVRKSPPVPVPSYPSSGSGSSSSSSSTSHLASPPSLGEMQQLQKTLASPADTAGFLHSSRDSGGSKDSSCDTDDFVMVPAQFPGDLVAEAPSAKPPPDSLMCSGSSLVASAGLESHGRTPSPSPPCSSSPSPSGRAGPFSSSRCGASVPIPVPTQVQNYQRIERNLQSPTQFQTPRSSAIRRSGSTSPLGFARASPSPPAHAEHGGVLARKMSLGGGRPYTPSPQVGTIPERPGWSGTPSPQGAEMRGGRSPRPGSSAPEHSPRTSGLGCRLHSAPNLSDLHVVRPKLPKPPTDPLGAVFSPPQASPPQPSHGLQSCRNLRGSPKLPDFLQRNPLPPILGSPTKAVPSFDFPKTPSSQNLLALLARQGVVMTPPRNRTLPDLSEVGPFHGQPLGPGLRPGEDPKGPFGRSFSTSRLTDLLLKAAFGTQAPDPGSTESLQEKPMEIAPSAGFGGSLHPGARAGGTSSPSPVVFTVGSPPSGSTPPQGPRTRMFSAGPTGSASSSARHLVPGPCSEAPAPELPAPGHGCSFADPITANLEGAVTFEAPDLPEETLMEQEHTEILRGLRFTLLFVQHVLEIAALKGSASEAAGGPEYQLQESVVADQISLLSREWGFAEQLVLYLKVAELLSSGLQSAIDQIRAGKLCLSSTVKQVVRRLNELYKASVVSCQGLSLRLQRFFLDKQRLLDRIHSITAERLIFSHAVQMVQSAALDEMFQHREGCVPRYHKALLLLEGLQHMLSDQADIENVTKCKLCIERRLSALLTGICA
# T13 sequence (Q08345 19-913): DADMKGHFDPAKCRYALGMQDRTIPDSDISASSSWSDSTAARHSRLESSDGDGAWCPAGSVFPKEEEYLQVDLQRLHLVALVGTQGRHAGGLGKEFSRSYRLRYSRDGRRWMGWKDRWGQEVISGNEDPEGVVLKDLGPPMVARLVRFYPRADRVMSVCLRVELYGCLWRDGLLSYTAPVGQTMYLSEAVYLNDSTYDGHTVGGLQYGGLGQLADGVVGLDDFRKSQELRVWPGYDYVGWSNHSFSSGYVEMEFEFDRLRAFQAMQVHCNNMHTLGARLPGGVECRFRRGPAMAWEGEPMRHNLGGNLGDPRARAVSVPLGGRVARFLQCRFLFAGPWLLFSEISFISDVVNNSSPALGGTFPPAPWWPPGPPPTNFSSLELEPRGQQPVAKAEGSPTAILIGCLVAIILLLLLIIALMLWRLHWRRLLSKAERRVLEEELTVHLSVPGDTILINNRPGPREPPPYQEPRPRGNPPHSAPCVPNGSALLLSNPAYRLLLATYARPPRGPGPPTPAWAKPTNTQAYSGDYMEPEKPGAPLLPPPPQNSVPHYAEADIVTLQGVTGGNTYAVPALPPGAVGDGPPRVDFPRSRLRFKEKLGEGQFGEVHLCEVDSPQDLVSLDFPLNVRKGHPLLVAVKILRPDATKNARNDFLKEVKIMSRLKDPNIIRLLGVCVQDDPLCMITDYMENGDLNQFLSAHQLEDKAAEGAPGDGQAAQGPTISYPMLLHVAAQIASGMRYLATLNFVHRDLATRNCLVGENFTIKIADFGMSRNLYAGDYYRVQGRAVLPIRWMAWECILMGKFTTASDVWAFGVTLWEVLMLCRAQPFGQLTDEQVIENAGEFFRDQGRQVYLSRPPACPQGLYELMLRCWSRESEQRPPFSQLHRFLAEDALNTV
# T6 sequence (Q8TDC3 whole entry): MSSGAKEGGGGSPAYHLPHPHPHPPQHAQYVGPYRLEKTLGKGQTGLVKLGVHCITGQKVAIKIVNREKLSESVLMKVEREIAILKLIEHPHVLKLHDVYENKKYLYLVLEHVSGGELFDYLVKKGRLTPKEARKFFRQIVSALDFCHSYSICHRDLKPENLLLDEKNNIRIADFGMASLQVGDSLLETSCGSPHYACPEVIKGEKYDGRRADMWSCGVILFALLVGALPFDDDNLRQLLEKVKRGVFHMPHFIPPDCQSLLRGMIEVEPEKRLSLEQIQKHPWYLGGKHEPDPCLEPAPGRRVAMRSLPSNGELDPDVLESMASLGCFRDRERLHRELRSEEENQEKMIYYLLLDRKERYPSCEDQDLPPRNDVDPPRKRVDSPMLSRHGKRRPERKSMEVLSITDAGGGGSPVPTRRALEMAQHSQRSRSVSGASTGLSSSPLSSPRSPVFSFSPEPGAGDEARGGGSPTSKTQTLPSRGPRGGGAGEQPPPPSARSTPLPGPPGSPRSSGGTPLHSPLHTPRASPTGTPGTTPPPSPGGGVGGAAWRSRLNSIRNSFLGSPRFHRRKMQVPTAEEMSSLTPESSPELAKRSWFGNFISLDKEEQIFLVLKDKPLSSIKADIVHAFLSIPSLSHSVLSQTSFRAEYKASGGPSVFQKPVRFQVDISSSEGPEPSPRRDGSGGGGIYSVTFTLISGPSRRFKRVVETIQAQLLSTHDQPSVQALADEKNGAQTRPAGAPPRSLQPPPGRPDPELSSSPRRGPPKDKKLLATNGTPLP
# T16 sequence (Q05397 whole entry): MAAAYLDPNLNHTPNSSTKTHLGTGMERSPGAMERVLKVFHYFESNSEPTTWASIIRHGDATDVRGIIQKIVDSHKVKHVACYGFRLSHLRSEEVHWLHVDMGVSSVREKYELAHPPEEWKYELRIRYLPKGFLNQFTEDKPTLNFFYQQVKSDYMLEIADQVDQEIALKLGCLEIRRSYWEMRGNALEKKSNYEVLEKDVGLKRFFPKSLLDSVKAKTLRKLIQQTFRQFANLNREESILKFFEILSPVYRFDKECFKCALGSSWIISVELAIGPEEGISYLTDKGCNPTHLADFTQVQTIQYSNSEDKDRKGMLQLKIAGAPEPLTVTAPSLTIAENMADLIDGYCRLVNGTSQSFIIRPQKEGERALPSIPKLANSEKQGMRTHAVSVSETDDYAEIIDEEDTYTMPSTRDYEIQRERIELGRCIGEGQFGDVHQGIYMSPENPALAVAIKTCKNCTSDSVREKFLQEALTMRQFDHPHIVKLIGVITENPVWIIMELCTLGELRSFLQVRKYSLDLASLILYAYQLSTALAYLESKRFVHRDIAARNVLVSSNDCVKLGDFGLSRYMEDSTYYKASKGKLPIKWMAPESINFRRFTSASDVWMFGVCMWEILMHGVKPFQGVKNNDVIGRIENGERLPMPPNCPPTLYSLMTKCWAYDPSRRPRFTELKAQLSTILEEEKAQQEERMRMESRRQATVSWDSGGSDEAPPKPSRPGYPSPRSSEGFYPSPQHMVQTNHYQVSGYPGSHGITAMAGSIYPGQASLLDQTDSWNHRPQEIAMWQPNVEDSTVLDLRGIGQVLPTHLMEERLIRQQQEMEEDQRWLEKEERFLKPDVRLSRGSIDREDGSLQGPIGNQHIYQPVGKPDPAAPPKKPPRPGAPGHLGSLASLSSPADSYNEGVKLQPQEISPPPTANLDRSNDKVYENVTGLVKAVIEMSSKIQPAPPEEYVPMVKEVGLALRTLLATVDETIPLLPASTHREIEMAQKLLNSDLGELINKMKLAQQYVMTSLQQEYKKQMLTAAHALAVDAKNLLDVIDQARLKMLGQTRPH
# T20 sequence (P07947 whole entry): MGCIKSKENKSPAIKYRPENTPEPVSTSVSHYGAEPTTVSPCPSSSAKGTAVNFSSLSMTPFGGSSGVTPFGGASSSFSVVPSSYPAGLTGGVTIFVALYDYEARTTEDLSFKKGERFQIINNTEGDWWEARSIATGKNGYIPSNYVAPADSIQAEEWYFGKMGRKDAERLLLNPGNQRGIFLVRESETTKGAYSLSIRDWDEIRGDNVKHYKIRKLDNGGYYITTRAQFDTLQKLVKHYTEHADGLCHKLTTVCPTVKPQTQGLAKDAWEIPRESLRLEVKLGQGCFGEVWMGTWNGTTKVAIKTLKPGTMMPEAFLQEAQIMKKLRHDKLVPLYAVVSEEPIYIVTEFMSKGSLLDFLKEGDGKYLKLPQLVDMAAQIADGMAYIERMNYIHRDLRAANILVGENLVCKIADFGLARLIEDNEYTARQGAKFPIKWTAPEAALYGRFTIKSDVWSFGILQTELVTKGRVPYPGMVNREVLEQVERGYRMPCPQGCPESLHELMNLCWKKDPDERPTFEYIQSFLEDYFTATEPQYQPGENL
# Chain of JAK2(JH1domain-catalytic) (O60674 840-1132 limits assumed): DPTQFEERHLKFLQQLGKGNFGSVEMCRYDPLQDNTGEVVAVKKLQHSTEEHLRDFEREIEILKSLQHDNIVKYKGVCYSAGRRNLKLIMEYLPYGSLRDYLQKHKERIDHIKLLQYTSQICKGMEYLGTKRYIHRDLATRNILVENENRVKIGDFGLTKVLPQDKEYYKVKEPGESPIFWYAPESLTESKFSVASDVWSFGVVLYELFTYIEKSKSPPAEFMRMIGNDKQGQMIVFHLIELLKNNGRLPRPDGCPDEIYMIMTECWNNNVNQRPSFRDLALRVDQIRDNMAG
structure (smiles),measurement,setting,value
"N[C@H]1CC[C@H](Nc2cc(-c3cccc(NCc4cccc(F)c4)n3)c(Cl)cn2)CC1 [i-CDK9, N2′-(trans-4-aminocyclohexyl)-5′-chloro-N6-(3-fluorobenzyl)-2,4′-bipyridine-2′,6-diamine]",IC50,[1],1800 nM
same,IC50,[2],1700 nM
same,IC50,[3],2000 nM
same,IC50,[4],240 nM
same,% Retention on Solid Support,[5]; 1 µM i-CDK9,76%
same,% Retention on Solid Support,[5]; 10 µM i-CDK9,84%
same,IC50,[6],> 1000 nM
same,remaining binding at 1 µM,[7]; 1 µM i-CDK9,89%
same,remaining binding at 10 µM,[7]; 10 µM i-CDK9,91%
same,remaining binding at 1 µM,[8]; 1 µM i-CDK9,100%
same,remaining binding at 10 µM,[8]; 10 µM i-CDK9,100%
same,remaining binding at 1 µM,[9]; 1 µM i-CDK9,100%
same,remaining binding at 10 µM,[9]; 10 µM i-CDK9,89%
same,remaining binding at 1 µM,[10]; 1 µM i-CDK9,100%
same,remaining binding at 10 µM,[10]; 10 µM i-CDK9,70%
same,remaining binding at 1 µM,[11]; 1 µM i-CDK9,14%
same,remaining binding at 10 µM,[11]; 10 µM i-CDK9,11%
same,remaining binding at 1 µM,[12]; 1 µM i-CDK9,100%
same,remaining binding at 10 µM,[12]; 10 µM i-CDK9,100%
same,remaining binding at 1 µM,[13]; 1 µM i-CDK9,100%
same,remaining binding at 10 µM,[13]; 10 µM i-CDK9,100%
same,remaining binding at 1 µM,[14]; 1 µM i-CDK9,100%
same,remaining binding at 10 µM,[14]; 10 µM i-CDK9,100%
same,remaining binding at 1 µM,[15]; 1 µM i-CDK9,99%
same,remaining binding at 10 µM,[15]; 10 µM i-CDK9,100%
same,remaining binding at 1 µM,[16]; 1 µM i-CDK9,100%
same,remaining binding at 10 µM,[16]; 10 µM i-CDK9,92%
same,remaining binding at 1 µM,[17]; 1 µM i-CDK9,29%
same,remaining binding at 10 µM,[17]; 10 µM i-CDK9,84%
same,remaining binding at 1 µM,[18]; 1 µM i-CDK9,100%
same,remaining binding at 10 µM,[18]; 10 µM i-CDK9,93%
same,remaining binding at 1 µM,[19]; 1 µM i-CDK9,88%
same,remaining binding at 10 µM,[19]; 10 µM i-CDK9,99%
same,remaining binding at 1 µM,[20]; 1 µM i-CDK9,100%
same,remaining binding at 10 µM,[20]; 10 µM i-CDK9,23%
same,% Retention on Solid Support,[21]; 1 µM i-CDK9,57%
same,% Retention on Solid Support,[21]; 10 µM i-CDK9,16%
same,remaining binding at 1 µM,[22]; 1 µM i-CDK9,100%
same,remaining binding at 10 µM,[22]; 10 µM i-CDK9,100%
same,remaining binding at 1 µM,[23]; 1 µM i-CDK9,84%
same,remaining binding at 10 µM,[23]; 10 µM i-CDK9,90%
same,remaining binding at 1 µM,[24]; 1 µM i-CDK9,100%
same,remaining binding at 10 µM,[24]; 10 µM i-CDK9,93%
same,remaining binding at 1 µM,[25]; 1 µM i-CDK9,81%
same,remaining binding at 10 µM,[25]; 10 µM i-CDK9,100%
same,remaining binding at 10 µM,[26],100%
same,% Retention on Solid Support,[27]; 1 µM i-CDK9,80%
same,% Retention on Solid Support,[27]; 10 µM i-CDK9,79%
same,remaining binding at 1 µM,[28]; 1 µM i-CDK9,100%
same,remaining binding at 10 µM,[28]; 10 µM i-CDK9,77%
same,remaining binding at 1 µM,[29]; 1 µM i-CDK9,100%
same,remaining binding at 10 µM,[29]; 10 µM i-CDK9,79%
